Where two headings read alike, the source gives them in different places.
Experiments:
[1] = test system: A-427 lung carcinoma cells [heterozygous G12D]; assay: Cancer cell line proliferation (CellTiter-Glo), A-427; type: cell-based; conditions: A-427 cells, 72 hr treatment, read-out: A427 CTG (EC50)
Procedure, shortened: (§1)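 Cells at 4,000/well grown 72 hr, then treated with 3-fold serial dilutions (20 μM to 1.02 nM, 0.5% DMSO final) for 72 hr at 37° C/5% CO2. Viability by CellTiter-Glo luminescence; EC50 values calculated.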

[2] = test system: ASPC1 pancreatic adenocarcinoma cells [homozygous G12D]; assay: Cancer cell line proliferation (CellTiter-Glo), ASPC1; type: cell-based; conditions: 72 hr treatment, read-out: ASPC-1 CTG (EC50)
Protocol: The following cancer cell lines were employed: AGS gastric carcinoma [heterozygous G12D](ATCC, CRL-1739); A-427 lung carcinoma [heterozygous G12D](ATCC, HTB-53); ASPC1 pancreatic adenocarcinoma [homozygous G12D](ATCC, CRL-1682) and SW1990 pancreatic adenocarcinoma [homozygous G12D](ATCC CRL-2172). Cell lines were cultured essentially according to ATCC recommendations.
AGS, A-427, ASPC1, SW1990, and GP2D cells were plated in 96-well tissue culture plates at 4,000 cells/well and incubated at 37° C./5% CO2 for 72 hr in 100 μl of media. 3-fold serial dilutions of each test compound were prepared ranging from 20 μM to 1.02 nM. Each cell line was then treated with test compounds at various concentrations with a final concentration of 0.5% DMSO/well, and then incubated at 37° C./5% CO2 for 72 hr. 100 µl of CellTiter-Glo® Reagent (Promega Corporation, Madison, WI) was added to each well and processed according manufacturer's protocol. Results were analyzed and EC50 values were calculated in GraphPad 7 software.

[3] = test system: AGS gastric carcinoma cells [heterozygous G12D]; assay: Cancer cell line proliferation (CellTiter-Glo), AGS; type: cell-based; conditions: 72 hr treatment, read-out: AGS CTG (EC50)
Procedure, shortened: as §1

KRAS(G12D)/SOS1 = molecular target: T1, KRAS(G12D)/SOS1 (Homo sapiens, UniProt P01116, G12D); assay: KRAS(G12D)/SOS1 homogeneous time-resolved fluorescence (HTRF) assay; type: binding; conditions: absence of GTP; 4° C., 3 hr
T1 construct: purchased Cisbio 63ADK000CB17PEH
T1 sequence (P01116 1-188 isoform P01116-2 G12D): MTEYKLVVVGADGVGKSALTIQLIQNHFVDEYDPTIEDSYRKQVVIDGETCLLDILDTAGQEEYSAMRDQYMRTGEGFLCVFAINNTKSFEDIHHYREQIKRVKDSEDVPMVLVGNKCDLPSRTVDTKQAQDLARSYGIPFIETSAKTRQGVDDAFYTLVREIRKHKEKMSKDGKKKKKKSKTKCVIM
Procedure, shortened: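 HTRF kit assay of compound-blocked KRAS(G12D)–SOS1 interaction, run without GTP. Compounds were tested as 3-fold dilutions from 20 µM to 1.02 nM and incubated with the reaction components for 3 hr at 4 °C, sealed. IC50 was taken as the concentration giving 50% of maximal inhibition.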

SMILES | EC50 ([1]; Homo sapiens) [nM] | EC50 ([2]; Homo sapiens, ASPC1, 72 h) [nM] | EC50 ([3]; Homo sapiens) [nM] | IC50 (KRAS(G12D)/SOS1) [nM] | EC50 [1] [nM] | EC50 [2] [nM] | EC50 [3] [nM]
CC(C)c1cc(C(=O)N2Cc3ccc(CN4CCN([C@H]5C[C@@H](COc6nc(N7CC8CCC(C7)N8)c7cnc(-c8cccc9cccc(C#N)c89)c(F)c7n6)N(C)C5)CC4)cc3C2)c(O)cc1O [Compound 63] | < 100 | 100 to 1000 | 100 to 1000 | 100 to 1000 |  |  | 
CCNC(=O)c1nnc(-c2cc(C(C)C)c(O)cc2O)n1-c1ccc(CN2CCN([C@H]3C[C@@H](COc4nc(N5CC6CCC(C5)N6)c5cnc(-c6cccc(C)c6C)c(F)c5n4)N(C)C3)CC2)cc1 [Compound 53] | 100 to 1000 | 100 to 1000 | < 100 | < 100 |  |  | 
CC(C)c1cc(C(=O)N2Cc3ccc(CN4CCC(C(=O)N5CCN(C[C@H]6CC[C@@H](COc7nc(N8CC9CCC(C8)N9)c8cnc(-c9cc(O)cc%10ccccc9%10)c(F)c8n7)N6C)CC5)CC4)cc3C2)c(O)cc1O [Compound 70] | 100 to 1000 | > 1000 | 100 to 1000 | < 100 |  |  | 
C#Cc1cccc2cc(O)cc(-c3ncc4c(N5CC6CCC(C5)N6)nc(OCC5(CN6CCC(OC7CCN(C(=O)C8CCN(Cc9ccc%10c(c9)CN(C(=O)c9cc(C(C)C)c(O)cc9O)C%10)CC8)CC7)CC6)CC5)nc4c3F)c12 [Compound 141] | < 100 | 100 to 1000 | < 100 | < 100 |  |  | 
CC(C)c1cc(C(=O)N2Cc3ccc(CN4CCC(C(=O)N(C)[C@H]5CN6CCC[C@]6(COc6nc(N7CC8CCC(C7)N8)c7cnc(-c8cc(O)cc9ccccc89)c(F)c7n6)C5)CC4)cc3C2)c(O)cc1O [Compound 50] | 100 to 1000 | 100 to 1000 | 100 to 1000 | < 100 |  |  | 
C#Cc1cccc2cccc(-c3ncc4c(N5CC6CCC(C5)N6)nc(OCC5CC[C@H](CN6CCN(C(=O)C7CCN(Cc8ccc(-n9c(O)nnc9-c9cc(C(C)C)c(O)cc9O)cc8)CC7)CC6)N5C)nc4c3F)c12 (stereo partly drawn) [Compound 27] | < 100 | 100 to 1000 | < 100 | < 100 |  |  | 
CC(C)c1cc(-c2nnc(O)n2-c2ccc(CN(C)[C@@H]3CN4CCC[C@]4(COc4nc(N5CC6CCC(C5)N6)c5cnc(-c6cc(O)cc7ccccc67)c(F)c5n4)C3)cc2)c(O)cc1O [Compound 43] |  |  |  | < 100 | > 1000 | > 1000 | > 1000
CCNC(=O)c1nnc(-c2cc(C(C)C)c(O)cc2O)n1-c1ccc(CN2CCN([C@H]3C[C@@H](COc4nc(N5CC6CCC(C5)N6)c5cnc(-c6ccccc6C(F)(F)F)c(F)c5n4)N(C)C3)CC2)cc1 [Compound 60] | 100 to 1000 | 100 to 1000 | < 100 | > 1000 |  |  | 
CCNC(=O)c1nnc(-c2cc(C(C)C)c(O)cc2O)n1-c1ccc(CN2CCN([C@H]3C[C@@H](COc4nc(N5CC6CNC(C6)C5)c5cnc(-c6cccc7cccc(C)c67)c(F)c5n4)N(C)C3)CC2)cc1 (stereo partly drawn) [Compound 69] | 100 to 1000 | > 1000 | 100 to 1000 | > 1000 |  |  | 
Cc1cccc2cccc(-c3ncc4c(N5CC6CCC(C5)N6)nc(OC[C@@H]5C[C@H](N6CCN(Cc7ccc8c(c7)CN(C(=O)c7cc(C(C)C)c(O)cc7O)C8)CC6)CN5C)nc4c3F)c12 [Compound 68] |  |  |  | > 1000 | 100 to 1000 | > 1000 | 100 to 1000
C#Cc1cccc2cccc(-c3ncc4c(N5CC6CCC(C5)N6)nc(OCC5(CN6CCN(Cc7ccc(-n8c(C(=O)NCC)nnc8-c8cc(C(C)C)c(O)cc8O)cc7)CC6)CC5)nc4c3F)c12 [Compound 12] | < 100 | 100 to 1000 | < 100 | < 100 |  |  | 
CCNC(=O)c1nnc(-c2cc(C(C)C)c(O)cc2O)n1-c1ccc(CN2CCN([C@H]3C[C@@H](COc4nc(N5CC6CCC(C5)N6)c5cnc(-c6cc(O)cc7ccccc67)c(F)c5n4)N(C)C3)CC2)cc1 [Compound 31] | 100 to 1000 | > 1000 | 100 to 1000 | < 100 |  |  | 

From US20260070929A1, “METHODS AND COMPOSITIONS FOR MODULATING KRAS(G12D)” (Ranok Therapeutics (Hangzhou) Co. LTD., priority 2022, published 2026)
